System: bacteria
Experiment: Non-antimicrobial dose and plasma antimicrobial threshold of antibacterial tetracyclines
Method: For example, tetracycline compounds that have significant antibacterial activity may be administered in an amount which is 10-80% of the antibacterial amount. More preferably, the antibacterial tetracycline compound is administered in an amount which is 40-70% of the antibacterial amount.
Examples of antibacterial tetracyclines administered in a non-antibacterial amount are depicted in Table 1, as follows: […]

SMILES	Plasma Antimicrobial Threshold Level [µg/mL]	Maximum Non-Antimicrobial Dose (twice daily) [mg b.i.d]	Maximum Non-Antimicrobial Dose (once daily) [mg q.d.]
C[C@H]1c2cccc(O)c2C(=O)C2=C(O)[C@]3(O)C(=O)C(C(N)=O)=C(O)[C@@H](N(C)C)[C@@H]3[C@@H](O)[C@@H]21 [Doxycycline]	1.0	20	
CN(C)c1ccc(O)c2c1C[C@H]1C[C@H]3[C@H](N(C)C)C(O)=C(C(N)=O)C(=O)[C@@]3(O)C(O)=C1C2=O [Minocycline]	0.8		38
CN(C)[C@@H]1C(O)=C(C(N)=O)C(=O)[C@@]2(O)C(O)=C3C(=O)c4c(O)cccc4[C@@](C)(O)[C@H]3C[C@@H]12 [Tetracycline]	0.5		60
